The results in this text go back to ChEMBL document CHEMBL4732080, “Polypharmacological drug actions of recently FDA approved antibiotics” (Eur J Med Chem, 2021).

SMILES strings stand for the structures. Values after ≈ are worked out from the molar mass of the structure shown.

Data set [1] deals with Albumin (Homo sapiens, UniProt P02768). Nature of the data set: Protein binding to human serum albumin. It counts as ADME, cell-free. Conditions: read-out: PB (converted).
A short description of data set [2]: Terminal half life in human. In kind it is ADME. Particulars: read-out: beta t1/2 (converted).
The nature of data set [3]: Terminal half life in human at 10 mg/kg, administered as single dose measured over 2 hrs. Particulars: in vivo, read-out: beta t1/2 (converted). It counts as ADME, organism-based.
The test system of data set [4] is Staphylococcus aureus. Put plainly: Antibacterial activity against methicillin-resistant Staphylococcus aureus. In kind it is functional.

Sequence of Albumin (P02768 whole entry): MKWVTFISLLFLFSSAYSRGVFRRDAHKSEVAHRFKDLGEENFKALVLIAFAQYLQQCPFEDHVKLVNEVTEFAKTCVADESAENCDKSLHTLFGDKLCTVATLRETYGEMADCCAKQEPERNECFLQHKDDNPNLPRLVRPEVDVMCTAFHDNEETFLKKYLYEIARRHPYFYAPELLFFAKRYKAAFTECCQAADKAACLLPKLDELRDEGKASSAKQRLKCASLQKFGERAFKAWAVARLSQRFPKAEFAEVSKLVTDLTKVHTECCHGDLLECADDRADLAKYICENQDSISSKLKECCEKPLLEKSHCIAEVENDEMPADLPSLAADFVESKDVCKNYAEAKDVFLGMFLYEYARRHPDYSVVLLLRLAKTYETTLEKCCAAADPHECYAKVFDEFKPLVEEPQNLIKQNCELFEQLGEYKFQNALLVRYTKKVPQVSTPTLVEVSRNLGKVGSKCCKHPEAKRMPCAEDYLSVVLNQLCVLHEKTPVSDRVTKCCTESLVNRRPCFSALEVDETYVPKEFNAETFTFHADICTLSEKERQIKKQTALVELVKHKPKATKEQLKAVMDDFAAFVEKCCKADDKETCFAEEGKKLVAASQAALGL

For `CN[C@H](CC(C)C)C(=O)N[C@H]1C(=O)N[C@@H](CC(N)=O)C(=O)N[C@H]2C(=O)N[C@H]3C(=O)N[C@H](C(=O)N[C@H](C(=O)O)c4cc(O)cc(O)c4-c4cc3ccc4O)[C@H](O[C@H]3C[C@](C)(N)[C@@H](O)[C@H](C)O3)c3ccc(c(Cl)c3)Oc3cc2cc(c3O[C@@H]2O[C@H](CO)[C@@H](O)[C@H](O)[C@H]2O[C@H]2C[C@](C)(NCc3ccc(-c4ccc(Cl)cc4)cc3)[C@@H](O)[C@H](C)O2)Oc2ccc(cc2Cl)[C@H]1O` [ORITAVANCIN], in data set [1], the fraction unbound is 0.1. For the same molecule, the half-life in data set [2] is 195 h.
With `CCCCCCCCCCNCCN[C@@]1(C)C[C@H](O[C@H]2[C@H](Oc3c4cc5cc3Oc3ccc(cc3Cl)[C@@H](O)[C@@H](NC(=O)[C@@H](CC(C)C)NC)C(=O)N[C@@H](CC(N)=O)C(=O)N[C@H]5C(=O)N[C@H]3C(=O)N[C@H](C(=O)N[C@H](C(=O)O)c5cc(O)c(CNCP(=O)(O)O)c(O)c5-c5cc3ccc5O)[C@H](O)c3ccc(c(Cl)c3)O4)O[C@H](CO)[C@@H](O)[C@@H]2O)O[C@@H](C)[C@H]1O` [TELAVANCIN], the fraction unbound in data set [1] is 0.07. In addition, the half-life in data set [3] was 7.5 h.
As for `CN[C@H](CC(C)C)C(=O)N[C@H]1C(=O)N[C@@H](CC(N)=O)C(=O)N[C@H]2C(=O)N[C@H]3C(=O)N[C@H](C(=O)N[C@H](C(=O)O)c4cc(O)cc(O)c4-c4cc3ccc4O)[C@H](O)c3ccc(c(Cl)c3)Oc3cc2cc(c3O[C@@H]2O[C@H](CO)[C@@H](O)[C@H](O)[C@H]2O[C@H]2C[C@](C)(N)[C@H](O)[C@H](C)O2)Oc2ccc(cc2Cl)[C@H]1O` [VANCOMYCIN], the fraction unbound in data set [1] was 0.9. In data set [4], the MIC50 was 1 µg/mL (≈ 0.69 µM). For the same molecule, the half-life in data set [2] was 6 h.
